Drawing on ChEMBL document CHEMBL1201862, “PubChem BioAssay data set” (2004), this text covers IC50, AC50 and EC50 for five compounds.

Active and inactive are the calls of the source. Where only a bound is given, the exact number is not on record here.

In general, IC50 refers to the concentration that gives 50% inhibition. By AC50 is commonly meant the concentration at which the activity in the assay is half-maximal. By EC50 is commonly meant the concentration at which the effect is half-maximal.

Experiment [1] has as its target T1, Carboxy-terminal domain RNA polymerase II polypeptide A small phosphatase 1 (Homo sapiens, UniProt Q9GZU7).
T1 sequence (Q9GZU7 whole entry): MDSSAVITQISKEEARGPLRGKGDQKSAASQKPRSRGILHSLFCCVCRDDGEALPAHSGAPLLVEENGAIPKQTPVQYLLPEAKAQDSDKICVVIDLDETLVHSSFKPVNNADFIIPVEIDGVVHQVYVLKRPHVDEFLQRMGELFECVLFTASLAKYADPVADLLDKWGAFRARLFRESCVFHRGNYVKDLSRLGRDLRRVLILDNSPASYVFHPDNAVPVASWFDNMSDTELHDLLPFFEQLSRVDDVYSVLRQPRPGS
In words: inhibitors of CTDSP1, concentration-response testing, biochemical assay, absorbance-based, actives from ultra-high-throughput screening (AID 540297). It is filed as functional.

For experiment [2], the target named is T2, High affinity choline transporter 1 (Homo sapiens, UniProt Q9GZV3).
T2 sequence (Q9GZV3 whole entry): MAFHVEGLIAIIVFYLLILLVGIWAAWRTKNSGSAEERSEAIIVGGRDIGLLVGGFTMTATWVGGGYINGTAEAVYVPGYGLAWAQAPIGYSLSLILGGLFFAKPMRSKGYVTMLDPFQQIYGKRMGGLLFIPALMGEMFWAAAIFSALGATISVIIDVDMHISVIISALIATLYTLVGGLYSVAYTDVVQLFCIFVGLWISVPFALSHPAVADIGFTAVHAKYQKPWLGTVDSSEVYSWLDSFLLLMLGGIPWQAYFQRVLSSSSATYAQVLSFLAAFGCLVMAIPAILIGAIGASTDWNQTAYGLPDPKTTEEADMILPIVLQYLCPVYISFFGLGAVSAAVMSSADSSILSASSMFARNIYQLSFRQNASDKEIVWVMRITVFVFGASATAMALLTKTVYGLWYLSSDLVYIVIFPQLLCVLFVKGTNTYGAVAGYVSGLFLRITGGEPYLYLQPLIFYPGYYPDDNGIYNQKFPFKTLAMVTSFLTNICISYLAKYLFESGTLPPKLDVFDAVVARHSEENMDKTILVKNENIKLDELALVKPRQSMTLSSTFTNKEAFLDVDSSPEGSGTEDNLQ
Briefly: CHT inhibitors, dose response, cell-based, 5-point CRC, membrane potential dye (AID 504840). Type of experiment: functional.

Experiment [3] has as its target T3, Protein skinhead-1 (Caenorhabditis elegans, UniProt P34707).
T3 sequence (P34707 whole entry): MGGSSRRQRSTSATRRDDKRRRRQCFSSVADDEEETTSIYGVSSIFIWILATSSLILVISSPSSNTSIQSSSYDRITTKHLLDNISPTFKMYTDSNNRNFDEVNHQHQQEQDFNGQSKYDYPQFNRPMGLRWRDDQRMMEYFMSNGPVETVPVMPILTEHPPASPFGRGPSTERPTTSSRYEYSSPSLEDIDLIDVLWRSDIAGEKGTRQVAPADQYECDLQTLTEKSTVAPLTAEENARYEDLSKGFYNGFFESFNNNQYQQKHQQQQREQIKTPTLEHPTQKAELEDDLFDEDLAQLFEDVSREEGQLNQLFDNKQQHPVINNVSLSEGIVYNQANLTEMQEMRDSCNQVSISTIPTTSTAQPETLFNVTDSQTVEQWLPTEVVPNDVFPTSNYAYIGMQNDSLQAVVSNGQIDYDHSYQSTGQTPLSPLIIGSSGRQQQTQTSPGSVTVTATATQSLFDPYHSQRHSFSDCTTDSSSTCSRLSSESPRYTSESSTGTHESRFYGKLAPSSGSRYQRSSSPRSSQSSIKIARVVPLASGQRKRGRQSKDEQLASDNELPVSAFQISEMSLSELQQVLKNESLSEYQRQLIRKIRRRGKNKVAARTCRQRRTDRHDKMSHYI
Type of experiment: functional.

Experiment [4] concerns the target Cytochrome P450 3A4 (Homo sapiens, UniProt P08684).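 Further: CYP3A4 tested as one member of a cytochrome P450 panel screen.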
Experiment [5] concerns the target DNA dC->dU-editing enzyme APOBEC-3A (Homo sapiens, UniProt P31941). In words: Dose Response confirmation of small molecule APOBEC3A DNA Deaminase Inhibitors via a fluorescence-based single-stranded DNA deaminase assay. [Related pubchem assays (depositor defined):AID493011, AID493024]. Type of experiment: functional.
The target in experiment [6] is DNA dC->dU-editing enzyme APOBEC-3G (Homo sapiens, UniProt Q9HC16). It is filed as functional.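 Further: Dose-response counterscreen measuring inhibition of APOBEC3G DNA deaminase activity, run while confirming APOBEC3A inhibitors.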
Chain of DNA dC->dU-editing enzyme APOBEC-3G (Q9HC16 whole entry): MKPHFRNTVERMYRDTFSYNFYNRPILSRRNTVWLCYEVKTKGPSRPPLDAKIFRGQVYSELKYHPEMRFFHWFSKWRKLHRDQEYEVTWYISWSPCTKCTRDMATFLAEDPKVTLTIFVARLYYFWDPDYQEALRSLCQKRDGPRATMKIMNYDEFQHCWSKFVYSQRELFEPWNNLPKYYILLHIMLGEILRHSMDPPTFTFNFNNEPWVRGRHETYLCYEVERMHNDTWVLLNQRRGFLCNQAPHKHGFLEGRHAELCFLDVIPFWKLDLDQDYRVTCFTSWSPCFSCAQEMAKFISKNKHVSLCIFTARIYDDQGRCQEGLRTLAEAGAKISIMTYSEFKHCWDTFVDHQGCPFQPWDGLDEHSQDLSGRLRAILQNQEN
In experiment [7] the target is Beta-2 adrenergic receptor (Homo sapiens, UniProt P07550). Briefly: beta2AR agonists driving receptor internalization, dose response, cell-based, FAP fluorogen, flow cytometry, cherry pick 1 (AID 588763). Type of experiment: functional. In general terms: Flow cytometry measures light scatter and fluorescence of single cells or particles in a stream.
Chain of Beta-2 adrenergic receptor (P07550 whole entry): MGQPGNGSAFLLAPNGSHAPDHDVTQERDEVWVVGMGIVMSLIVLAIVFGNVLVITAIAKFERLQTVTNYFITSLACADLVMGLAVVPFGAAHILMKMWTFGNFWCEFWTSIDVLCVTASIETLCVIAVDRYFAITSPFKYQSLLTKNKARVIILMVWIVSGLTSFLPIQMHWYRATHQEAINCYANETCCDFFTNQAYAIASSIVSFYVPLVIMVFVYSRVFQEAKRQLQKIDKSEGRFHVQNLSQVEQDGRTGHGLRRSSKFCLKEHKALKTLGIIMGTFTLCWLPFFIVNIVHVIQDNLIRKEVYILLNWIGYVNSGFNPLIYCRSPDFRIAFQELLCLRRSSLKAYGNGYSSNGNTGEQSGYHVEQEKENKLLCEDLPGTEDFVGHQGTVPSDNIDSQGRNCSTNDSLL

Chain of Cytochrome P450 3A4 (P08684 whole entry): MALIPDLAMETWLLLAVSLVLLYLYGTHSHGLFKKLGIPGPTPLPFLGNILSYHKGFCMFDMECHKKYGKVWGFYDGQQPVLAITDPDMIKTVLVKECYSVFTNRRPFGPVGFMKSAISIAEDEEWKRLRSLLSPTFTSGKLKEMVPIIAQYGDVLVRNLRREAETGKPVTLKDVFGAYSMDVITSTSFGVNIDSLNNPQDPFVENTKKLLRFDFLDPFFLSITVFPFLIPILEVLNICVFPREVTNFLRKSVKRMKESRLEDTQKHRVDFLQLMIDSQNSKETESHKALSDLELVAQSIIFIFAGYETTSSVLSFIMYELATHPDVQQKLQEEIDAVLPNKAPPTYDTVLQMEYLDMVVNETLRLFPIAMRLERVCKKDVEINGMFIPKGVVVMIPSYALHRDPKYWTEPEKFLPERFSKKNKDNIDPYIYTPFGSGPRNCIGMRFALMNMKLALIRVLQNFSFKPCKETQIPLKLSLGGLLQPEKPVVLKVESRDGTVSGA
Chain of DNA dC->dU-editing enzyme APOBEC-3A (P31941 whole entry): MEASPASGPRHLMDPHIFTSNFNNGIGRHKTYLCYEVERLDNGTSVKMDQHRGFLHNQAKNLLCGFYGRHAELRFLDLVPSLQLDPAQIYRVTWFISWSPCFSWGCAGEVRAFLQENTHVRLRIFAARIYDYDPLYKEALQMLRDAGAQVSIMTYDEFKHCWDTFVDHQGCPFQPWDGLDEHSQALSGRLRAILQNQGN

With `C[C@H]1CN([C@@H](C)CO)C(=O)Cc2cc(NS(=O)(=O)c3cn(C)cn3)ccc2O[C@@H]1CN(C)C(=O)Nc1ccc(F)cc1`, in experiment [1], the IC50 was 33.7 µM (active).
In the case of `CC(C)OC(=O)CN1CCN(C2c3ccccc3-c3ccccc32)CC1`, the IC50 was 10.7 µM (active) in experiment [2] and > 100 µM (inactive) in experiment [3]. In addition, in experiment [4], the AC50 was 25.1 µM (inconclusive).
`C[n+]1ccc(C(=O)NCc2ccccc2)cc1` [ENISAMIUM IODIDE]: the values for the IC50 in experiment [5], in experiment [6] and in experiment [1] were 2.98 µM (active), 4.98 µM (active) and 9.76 µM (active), respectively.
In the case of `COc1ccc(C2=NN(C(=O)c3cccs3)C(c3ccc(OC)cc3)C2)cc1` (centres undefined), the EC50 in experiment [7] is 4.84 µM (active).
Same read-out and setting: under `Cc1ncc(CN2CCCC(C(=O)Nc3ccc(-c4cccc(F)c4)cc3)C2)cn1` (centres undefined) stands 0.695 µM (active).
